Reference: US9181218B2, “Compounds for improved stem cell differentiation into hepatocytes” (Hoffmann-La Roche Inc., priority 2013, dated 2015)

System: interferon-stimulated genes (ISGs)
Assay: Microarray analysis of iCell Hepatocytes treated with the compound of example 1
Type: cell-based, Human
Source text: iCell Hepatocytes treated with the compound of example 1 results in the up and down-regulation of a host of genes; including a kinetic effect on interferon-stimulated gene (ISGs) expression. See FIGS. 15-I and 15-II, 16-I and 16-II and 18 and Table 1.

SMILES: O=C(NCc1cccc(F)c1)c1cccc2nc(-c3c(NC[C@@H](O)c4ccccc4)cc[nH]c3=O)[nH]c12 [Example 1, 2-[4-((S)-2-hydroxy-2-phenyl-ethylamino)-2-oxo-1,2-dihydro-pyridin-3-yl]-3H-benzoimidazole-4-carboxylic acid 3-fluoro-benzylamide]
- ADAM19 Raw Est Fold Change (2 HOUR): 2.77
- AES Raw Est Fold Change (2 HOUR): 2.07
- AKT3 Raw Est Fold Change (2 HOUR): −1.76
- ASNS Raw Est Fold Change (2 HOUR): 1.80
- BCL3 Raw Est Fold Change (2 HOUR): −1.44
- BUB1 Raw Est Fold Change (2 HOUR): −20.72
- C10orf10 Raw Est Fold Change (2 HOUR): −3.72
- CD80 Raw Est Fold Change (2 HOUR): −13.65
- CD300LF Raw Est Fold Change (2 HOUR): 5.42
- CEBPD Raw Est Fold Change (2 HOUR): −1.29
- CSNK1D Raw Est Fold Change (2 HOUR): 1.10
- DDIT4 Raw Est Fold Change (2 HOUR): 2.67
- DRAP1 Raw Est Fold Change (2 HOUR): 1.17
- EFNB2 Raw Est Fold Change (2 HOUR): −1.63
- EHHADH Raw Est Fold Change (2 HOUR): −1.16
- EPAS1 Raw Est Fold Change (2 HOUR): −2.61
- ETV7 Raw Est Fold Change (2 HOUR): −2.54
- FGF2 Raw Est Fold Change (2 HOUR): −1.76
- GOLGA3 Raw Est Fold Change (2 HOUR): 1.45
- GTPBP2 Raw Est Fold Change (2 HOUR): −1.29
- HLA-C Raw Est Fold Change (2 HOUR): −4.87
- ISGF3G Raw Est Fold Change (2 HOUR): −1.17
- JAK1 Raw Est Fold Change (2 HOUR): −5.55
- JUNB Raw Est Fold Change (2 HOUR): −6.01
- KAL1 Raw Est Fold Change (2 HOUR): −2.61
- KPNB1 Raw Est Fold Change (2 HOUR): 1.14
- MAX Raw Est Fold Change (2 HOUR): 3.74
- MPO Raw Est Fold Change (2 HOUR): −3.18
- PCMT1 Raw Est Fold Change (2 HOUR): −1.10
- PHF11 Raw Est Fold Change (2 HOUR): −1.80
- PHF15 Raw Est Fold Change (2 HOUR): 1.74
- PI4K2B Raw Est Fold Change (2 HOUR): −1.08
- PIM3 Raw Est Fold Change (2 HOUR): −1.19
- PXK Raw Est Fold Change (2 HOUR): 1.17
- RHOH Raw Est Fold Change (2 HOUR): −14.71
- SCARB2 Raw Est Fold Change (2 HOUR): 1.50
- SOCS1 Raw Est Fold Change (2 HOUR): −4.13
- SOCS3 Raw Est Fold Change (2 HOUR): −9.95
- TXNIP Raw Est Fold Change (2 HOUR): −2.04
- ABHD5 Raw Est Fold Change (24 HOUR): −1.43
- ADM Raw Est Fold Change (24 HOUR): −1.81
- AKAP12 Raw Est Fold Change (24 HOUR): 3.33
- ALCAM Raw Est Fold Change (24 HOUR): −1.24
- AMPH Raw Est Fold Change (24 HOUR): −3.29
- ARHGDIB Raw Est Fold Change (24 HOUR): −1.72
- ARHGEF3 Raw Est Fold Change (24 HOUR): −1.32
- ATF3 Raw Est Fold Change (24 HOUR): −3.06
- AXL Raw Est Fold Change (24 HOUR): −6.82
- B4GALT5 Raw Est Fold Change (24 HOUR): −1.87
- BAG1 Raw Est Fold Change (24 HOUR): 1.26
- BCL3 Raw Est Fold Change (24 HOUR): −3.11
- BHMT Raw Est Fold Change (24 HOUR): 5.84
- BLZF1 Raw Est Fold Change (24 HOUR): −1.26
- BST2 Raw Est Fold Change (24 HOUR): −1.70
- BTG1 Raw Est Fold Change (24 HOUR): −1.16
- BUB1 Raw Est Fold Change (24 HOUR): −33.18
- C1S Raw Est Fold Change (24 HOUR): −1.62
- C4orf32 Raw Est Fold Change (24 HOUR): −7.20
- C4orf33 Raw Est Fold Change (24 HOUR): 3.95
- C10orf10 Raw Est Fold Change (24 HOUR): −2.71
- CASP4 Raw Est Fold Change (24 HOUR): −5.09
- CASP5 Raw Est Fold Change (24 HOUR): −3.00
- CCND3 Raw Est Fold Change (24 HOUR): −1.81
- CD38 Raw Est Fold Change (24 HOUR): −10.02
- CD47 Raw Est Fold Change (24 HOUR): −1.52
- CEBPD Raw Est Fold Change (24 HOUR): −2.58
- CHD6 Raw Est Fold Change (24 HOUR): 1.16
- CHST12 Raw Est Fold Change (24 HOUR): −1.21
- CLCN6 Raw Est Fold Change (24 HOUR): −1.26
- CREB3L3 Raw Est Fold Change (24 HOUR): −3.22
- CRYM Raw Est Fold Change (24 HOUR): 2.03
- CSDA Raw Est Fold Change (24 HOUR): −2.38
- CTSL Raw Est Fold Change (24 HOUR): −1.28
- CX3CL1 Raw Est Fold Change (24 HOUR): 2.73
- CXCL10 Raw Est Fold Change (24 HOUR): 1.71
- CYBA Raw Est Fold Change (24 HOUR): −1.64
- CYP1B1 Raw Est Fold Change (24 HOUR): −2.71
- DDX17 Raw Est Fold Change (24 HOUR): −1.56
- DNAPTP6 Raw Est Fold Change (24 HOUR): 1.34
- DRAP1 Raw Est Fold Change (24 HOUR): 1.29
- EFNB2 Raw Est Fold Change (24 HOUR): −1.46
- EGR1 Raw Est Fold Change (24 HOUR): −2.86
- EHHADH Raw Est Fold Change (24 HOUR): 1.80
- EMP1 Raw Est Fold Change (24 HOUR): −5.94
- EPAS1 Raw Est Fold Change (24 HOUR): −2.84
- ETS2 Raw Est Fold Change (24 HOUR): −1.73
- ETV6 Raw Est Fold Change (24 HOUR): −1.37
- ETV7 Raw Est Fold Change (24 HOUR): −3.88
- FAM125B Raw Est Fold Change (24 HOUR): −1.54
- FBXO6 Raw Est Fold Change (24 HOUR): 3.00
- FFAR2 Raw Est Fold Change (24 HOUR): −7.50
- FKBP1B Raw Est Fold Change (24 HOUR): −1.90
- FKBP5 Raw Est Fold Change (24 HOUR): −1.39
- FLT1 Raw Est Fold Change (24 HOUR): −1.75
- FNDC3B Raw Est Fold Change (24 HOUR): −1.67
- FNDC4 Raw Est Fold Change (24 HOUR): −1.59
- FUBP1 Raw Est Fold Change (24 HOUR): −1.50
- FUT4 Raw Est Fold Change (24 HOUR): −1.89
- G6PC Raw Est Fold Change (24 HOUR): 4.22
- GALNT2 Raw Est Fold Change (24 HOUR): −5.18
- GBP2 Raw Est Fold Change (24 HOUR): −1.83
- GBP4 Raw Est Fold Change (24 HOUR): −3.07
- GCH1 Raw Est Fold Change (24 HOUR): 1.17
- GK Raw Est Fold Change (24 HOUR): −2.50
- GLUL Raw Est Fold Change (24 HOUR): 1.13
- GNAI1 Raw Est Fold Change (24 HOUR): 1.43
- GOLGA3 Raw Est Fold Change (24 HOUR): −1.24
- GTF2F1 Raw Est Fold Change (24 HOUR): 1.28
- GTPBP1 Raw Est Fold Change (24 HOUR): −1.24
- HEG1 Raw Est Fold Change (24 HOUR): −3.64
- HIF1A Raw Est Fold Change (24 HOUR): −1.47
- HK2 Raw Est Fold Change (24 HOUR): −1.88
- HLA-DPA1 Raw Est Fold Change (24 HOUR): −2.10
- HLA-DPB1 Raw Est Fold Change (24 HOUR): −2.11
- ICAM1 Raw Est Fold Change (24 HOUR): −6.60
- IER3 Raw Est Fold Change (24 HOUR): −2.60
- IFI16 Raw Est Fold Change (24 HOUR): −6.86
- IFI27 Raw Est Fold Change (24 HOUR): −1.56
- IFIT1 Raw Est Fold Change (24 HOUR): 3.58
- IFIT3 Raw Est Fold Change (24 HOUR): 1.88
- IFITM1 Raw Est Fold Change (24 HOUR): −3.11
